Measured values published in US20150258059A1, “ANTIMICROBIAL AND RADIOPROTECTIVE COMPOUNDS” (BioDiem, Ltd, priority 2001, published 2015).
Where two headings read alike, the source gives them in different places.

Assays:
Assay type in all cases: cell-based
[1] = tested on: Yersinia pseudotuberculosis; conditions: Compound (1) 1.0%; antibiotics disc method
[2] = tested on: Klebsiella pneumoniae M-248; test: Sensitivity of strains: suppression of growth; conditions: Compound (1) 1.0%; antibiotics disc method
[3] = tested on: Alkaligenes sp. B-689; test: Sensitivity of strains: suppression of growth; conditions: Compound (1) 1.0%; antibiotics disc method
[4] = tested on: Citrobacter diversus B-678; test: Sensitivity of strains: suppression of growth; conditions: Compound (1) 1.0%; antibiotics disc method
[5] = tested on: Enterobacter aerogenes B-687; test: Sensitivity of strains: suppression of growth; conditions: Compound (1) 1.0%; antibiotics disc method
[6] = tested on: Neisseria meningitidis M-A72; test: Sensitivity of strains: suppression of growth; conditions: Compound (1) 1.0%; antibiotics disc method
[7] = tested on: Escherichia coli M-17; test: Sensitivity of strains: suppression of growth; conditions: Compound (1) 1.0%; antibiotics disc method
[8] = tested on: Salmonella typhimurium M-727; test: Sensitivity of strains: suppression of growth; conditions: Compound (1) 1.0%; antibiotics disc method
[9] = tested on: Alkaligenes sp. B-667; test: Sensitivity of strains: suppression of growth; conditions: Compound (1) 1.0%; antibiotics disc method
[10] = tested on: Staphylococci epidermidis D-513; test: Sensitivity of strains: suppression of growth; conditions: Compound (1) 1.0%; antibiotics disc method
[11] = tested on: Staphylococcus aureus B-685; test: Sensitivity of strains: suppression of growth; conditions: Compound (1) 1.0%; antibiotics disc method
[12] = tested on: Acinetobacter B-676; test: Sensitivity of strains: suppression of growth; conditions: Compound (1) 1.0%; antibiotics disc method
[13] = tested on: Staphylococcus aureus B-674; test: Sensitivity of strains: suppression of growth; conditions: Compound (1) 1.0%; antibiotics disc method
[14] = tested on: Staphylococcus aureus M-12159; test: Sensitivity of strains: suppression of growth; conditions: Compound (1) 1.0%; antibiotics disc method
[15] = tested on: β-hemolytic streptococcus B-624; test: Sensitivity of strains: suppression of growth; conditions: Compound (1) 1.0%; antibiotics disc method
[16] = tested on: Conditional pathogenic enterobacteria gram-negative aerobic bacilli; also: key: + sensitive strains; + moderately sensitive strains; − stable strains
[17] = tested on: Enterobacter aerogenes B-679; test: Sensitivity of strains: suppression of growth; conditions: Compound (1) 1.0%; antibiotics disc method
[18] = tested on: Escherichia coli B-683; test: Sensitivity of strains: suppression of growth; conditions: Compound (1) 1.0%; antibiotics disc method
[19] = tested on: Acinetobacter B-677; test: Sensitivity of strains: suppression of growth; conditions: Compound (1) 1.0%; antibiotics disc method
[20] = tested on: Neisseria meningitidis M-6231; test: Sensitivity of strains: suppression of growth; conditions: Compound (1) 1.0%; antibiotics disc method
[21] = tested on: Klebsiella pneumoniae M-A21; test: Sensitivity of strains: suppression of growth; conditions: Compound (1) 1.0%; antibiotics disc method
[22] = tested on: Escherichia coli B-65; test: Sensitivity of strains: suppression of growth; conditions: Compound (1) 1.0%; antibiotics disc method
[23] = tested on: Staphylococcus aureus M-209; test: Sensitivity of strains: suppression of growth; conditions: Compound (1) 1.0%; antibiotics disc method
[24] = tested on: Pseudomonas aeruginosa B-601; test: Sensitivity of strains: suppression of growth; conditions: Compound (1) 1.0%; antibiotics disc method
[25] = tested on: Acinetobacter B-681; test: Sensitivity of strains: suppression of growth; conditions: Compound (1) 1.0%; antibiotics disc method
[26] = tested on: Staphylococcus epidermidis BK-30; test: Sensitivity of strains: suppression of growth; conditions: Compound (1) 1.0%; antibiotics disc method
[27] = tested on: γ-hemolytic streptococcus B-672; test: Sensitivity of strains: suppression of growth; conditions: Compound (1) 1.0%; antibiotics disc method
[28] = tested on: Bacillus sp. B-575; test: Sensitivity of strains: suppression of growth; also: key: + sensitive strains; + moderately sensitive strains; − stable strains
[29] = tested on: Corynebacterium diphtheriae B-670; test: Sensitivity of strains: suppression of growth; conditions: Compound (1) 1.0%; antibiotics disc method
[30] = tested on: Salmonella paratyphi M-16469; test: Sensitivity of strains: suppression of growth; conditions: Compound (1) 1.0%; antibiotics disc method

Compound	Suppression of Growth (+/−) [1]	Suppression of Growth (+/−) [2]	Suppression of Growth (+/−) [3]	Suppression of Growth (+/−) [5]	Suppression of Growth (+/−) [6]	Suppression of Growth (+/−) [7]	Suppression of Growth (+/−) [9]	Suppression of Growth (+/−) [10]	Suppression of Growth (+/−) [11]	Suppression of Growth (+/−) [12]	Suppression of Growth (+/−) [13]	Suppression of Growth (+/−) [14]	Suppression of Growth (+/−) [15]	Suppression of Growth (+/−) [17]	Suppression of Growth (+/−) [18]	Suppression of Growth (+/−) [19]	Suppression of Growth (+/−) [20]	Suppression of Growth (+/−) [21]	Suppression of Growth (+/−) [22]	Suppression of Growth (+/−) [23]	also measured
CC1(C)S[C@@H]2[C@H](NC(=O)[C@H](N)c3ccccc3)C(=O)N2[C@H]1C(=O)O [Antibiotic 2, ampicillin]	−	−	−	−	−	+	−	+	−	−	−	−	+	−	+	−	−	−	+	−	Suppression of Growth (+/−) [4]: +; Suppression of Growth (+/−) [8]: −; Suppression of Growth (+/−) [16]: −; Suppression of Growth (+/−) [24]: +; Suppression of Growth (+/−) [25]: −; Suppression of Growth (+/−) [26]: +; Suppression of Growth (+/−) [27]: +; Suppression of Growth (+/−) [28]: −
CC1(C)S[C@@H]2[C@H](NC(=O)C(C(=O)O)c3ccccc3)C(=O)N2[C@H]1C(=O)O (some centres unmarked) [Antibiotic 4, carbenicillin]	−	−	−	−	−	+	−	+	+	−	−	+	+	−	+	−	−	−	+	+	Suppression of Growth (+/−) [4]: −; Suppression of Growth (+/−) [29]: −; Suppression of Growth (+/−) [16]: −; Suppression of Growth (+/−) [24]: +; Suppression of Growth (+/−) [25]: −; Suppression of Growth (+/−) [26]: +; Suppression of Growth (+/−) [27]: −; Suppression of Growth (+/−) ([28]; Compound (1) 1.0%, antibiotics disc method): −
NC[C@H]1O[C@H](O[C@H]2[C@H](O)[C@@H](O[C@H]3O[C@H](CO)[C@@H](O)[C@H](N)[C@H]3O)[C@H](N)C[C@@H]2N)[C@H](O)[C@@H](O)[C@@H]1O [Antibiotic 5, kanamycin]	−	−	+	−	−	+	−	−	+	−	−	+	−	−	+	−	−	−	+	+	Suppression of Growth (+/−) [4]: +; Suppression of Growth (+/−) [29]: −; Suppression of Growth (+/−) [16]: −; Suppression of Growth (+/−) [24]: +; Suppression of Growth (+/−) [25]: −; Suppression of Growth (+/−) [26]: −; Suppression of Growth (+/−) [27]: −
CN(C)[C@@H]1C(=O)C(C(N)=O)=C(O)[C@@]2(O)C(=O)C3=C(O)c4c(O)cccc4[C@@](C)(O)[C@H]3C[C@@H]12 [Antibiotic 13, tetracycline]	−	−	−	−	−	+	−	−	−	−	+	−	−	−	+	−	−	−	+	−	Suppression of Growth (+/−) [29]: +; Suppression of Growth (+/−) [24]: +; Suppression of Growth (+/−) [25]: −; Suppression of Growth (+/−) [26]: −; Suppression of Growth (+/−) [27]: −; Suppression of Growth (+/−) [28]: +
polymixin [Antibiotic 9]	−	−	−	+	−	+	+	−	−	−	−	−	−	+	+	−	−	−	+	+	Suppression of Growth (+/−) [29]: −; Suppression of Growth (+/−) [16]: −; Suppression of Growth (+/−) [24]: +; Suppression of Growth (+/−) [25]: −; Suppression of Growth (+/−) [30]: −; Suppression of Growth (+/−) [26]: −; Suppression of Growth (+/−) [27]: −; Suppression of Growth (+/−) [28]: −
